The values that follow come from US20040142821A1, “Pesticide composition comprising malononitrile compounds” (priority 2001, published 2004).

Broadly, the mortality is the percentage killed.

Molecules are shown by their SMILES.

Assay [1] has as its system Musca domestics. Description: Pesticidal test against Musca domestics, treated filter paper with sucrose bait (Test Example 5). In kind it is in vivo. Particulars: 500 ppm test liquid (Formulation Example 5), 0.7 ml on filter paper, ten female adults, after 24 hours. The method, then: Ten female adults of Musca domestics (house fly) were set free in the polyethylene cup, which was then kept covered. After 24 hours, their survival was examined to determine the mortality.

The subject of assay [2] is German cockroach. In words: Pesticidal test against German cockroach, treated filter paper with sucrose bait (Test Example 6). The class given is in vivo. Particulars: Blattella germanica, 144 h; 500 ppm test liquid (Formulation Example 5), 0.7 ml on filter paper; two male adults; after 6 days. The source says:
Two male adults of German cockroach (Blattalla germanica) were set free in the polyethylene cup, which was then kept covered. After 6 days, their survival was examined to determine the mortality.

Assay [3] concerns Cullex pipiens pallens. In words: whole plant or invertebrate. The settings on record: 24 h.
Experimental: In 100 ml of ion-exchanged water, the test liquid had been prepared as described above, was added dropwise in an amount of 0.7 ml (the concentration of active ingredient was 3.5 ppm). Twenty final-instar larvae of Cullex pipiens pallens (common mosquito) were set free in the solution. After 1 days, their survival was examined to determine the mortality.

For `C=CCCC(C#N)(C#N)Cc1ccc(OC(F)(F)F)cc1` [Compound 15, 2-(3-butenyl)-2-(4-(trifluoromethoxy)benzyl)malononitrile], the mortality at 500 ppm in assay [1] and in assay [2] was 100% throughout. Also, the mortality at 3.5 µg/mL in assay [3] was found to be 100%.
Turning to `C=CCCC(C#N)(C#N)Cc1ccc(C(F)(F)F)cc1[N+](=O)[O-]` [Compound 67, 2-(3-butenyl)-2-(2-nitro-4-(trifluoromethyl)benzyl)malononitrile], in assay [1], the mortality at 500 ppm is 100%. In assay [3], the mortality at 3.5 µg/mL was determined as 100%.
Regarding `CCCC(C#N)(C#N)Cc1ccc(C(F)(F)F)cc1` [Compound 71, 2-propyl-2-(4-(trifluoromethyl)benzyl)malononitrile], the mortality at 500 ppm in assay [1] came out at 100%. Further, in assay [3], the mortality at 3.5 µg/mL worked out at 100%.
In turn, `CCC(C#N)(C#N)Cc1ccc(C(F)(F)F)cc1` [Compound 75, 2-ethyl-2-(4-(trifluoromethyl)benzyl)malononitrile] yielded a mortality at 500 ppm in assay [1] of 100%. The molecule further registered a mortality at 3.5 µg/mL in assay [3] of 100%.
Take `C=CCC(C#N)(C#N)C(OCC)c1ccc(OC(F)(F)F)cc1` (stereo not drawn) [Compound 82, 2-allyl-2-(4-(trifluoromethoxy)-α-ethoxybenzyl)malononitrile]: the mortality at 500 ppm in assay [1] stood at 100%. The mortality at 3.5 µg/mL in assay [3] came to 100%.
Consider `C=CCC(C#N)(C#N)C(C#N)c1ccc(C)cc1` (stereo not drawn) [Compound 92, 2-allyl-2-(4-methyl-α-cyanobenzyl)malononitrile], for which the mortality at 500 ppm in assay [1] was 100%. The mortality at 3.5 µg/mL in assay [3] is 100%.
`C=CCC(C#N)(C#N)Cc1ccc(CC)cc1` [Compound 101, 2-allyl-2-(4-ethylbenzyl)malononitrile] registered a mortality at 500 ppm in assay [1] of 100%. Besides, in assay [3], the mortality at 3.5 µg/mL worked out at 100%.
The molecule `CC(C)CCC(C#N)(C#N)Cc1ccc(C(F)(F)F)cc1` [Compound 105, 2-(3-methylbutyl)-2-(4-(trifluoromethyl)benzyl)malononitrile] registered a mortality at 500 ppm in assay [1] of 100%. The molecule also came in with a mortality at 3.5 µg/mL in assay [3] of 100%.
`CC=CCC(C#N)(C#N)Cc1ccc(C(F)(F)F)cc1` [Compound 107, 2-(2-butenyl)-2-(4-(trifluoromethyl)benzyl)malononitrile] showed a mortality at 500 ppm in assay [1] of 100%. In assay [3], the mortality at 3.5 µg/mL was found to be 100%.
With `C=C(C)CC(C#N)(C#N)Cc1ccc(C(F)(F)F)cc1` [Compound 108, 2-(2-methyl-2-propenyl)-2-(4-(trifluoromethyl)benzyl)malononitrile], the mortality at 500 ppm in assay [1] turned out to be 100%. For the same molecule, the mortality at 3.5 µg/mL in assay [3] came to 100%.
For the molecule `CCC(C)C(C#N)(C#N)Cc1ccc(C(F)(F)F)cc1` (centres unmarked) [Compound 111, 2-(1-methylpropyl)-2-(4-(trifluoromethyl)benzyl)malononitrile], in assay [1], the mortality at 500 ppm is 100%. The same molecule came in with a mortality at 3.5 µg/mL in assay [3] of 100%.
Turning to `C=CCC(C#N)(C#N)Cc1cccc(F)c1F` [Compound 114, 2-allyl-2-(2,3-difluorobenzyl)malononitrile], the mortality at 500 ppm in assay [1] and in assay [2] was 100% in each case.
Molecule `C=CCC(C#N)(C#N)Cc1ccc(OC(C)CC)cc1` (centres unmarked) [Compound 115, 2-allyl-2-(4-(2-butyloxy)benzyl)malononitrile] had a mortality at 500 ppm in assay [1] of 100%. Moreover, the mortality at 3.5 µg/mL in assay [3] was determined as 100%.
For the molecule `C=CCC(C#N)(C#N)Cc1ccc(Oc2cccc(C)c2)cc1` [Compound 119, 2-allyl-2-(4-(m-tolyloxy)benzyl)malononitrile], the mortality at 500 ppm in assay [2] worked out at 100%.
For the molecule `C=CCC(C#N)(C#N)Cc1c(F)cc(F)cc1F` [Compound 120, 2-allyl-2-(2,4,6-trifluorobenzyl)malononitrile], the mortality at 500 ppm in assay [1] and in assay [2] was 100% in each case.
For `C=CCC(C#N)(C#N)Cc1ccc(Oc2ccc(Cl)cc2)cc1` [Compound 121, 2-allyl-2-(4-(p-chlorophenoxy)benzyl)malononitrile], the mortality at 500 ppm in assay [2] came to 100%. In assay [3], this molecule yielded a mortality at 3.5 µg/mL of 100%.
